Test results from US9365540B2, “Benzimidazole derivatives as MCH receptor antagonists” (Takeda Pharmaceutical Company Limited, priority 2012, dated 2016).

Biological target: T1, human MCH receptor 1 (MCHR1) (Homo sapiens, UniProt Q99705)
T1 construct: expressed in transfected cells; host or cells: CHO cell clone 57 (membrane fraction)
Test: human MCH receptor 1 (MCHR1) competitive binding assay with [125I]-MCH(4-19)
Conditions: test compound 0.1 μM, human MCHR1-expressing CHO cell membrane fraction, 0.1 µM
Description: Determination of human MCH receptor 1 (MCHR1) competitive inhibitory activity of test compound using binding assay
1. Preparation of Membrane Fraction
Using human MCHR1 (=SLC-1 receptor)-expressing CHO cell clone 57 described in WO01/82925, MCHR1-expressing CHO cell membrane fractions were prepared by the following method.
In phosphate buffered saline (pH 7.4) supplemented with 5 mM EDTA (ethylenediaminetetraacetic acid) were respectively suspended human MCHR1-expressing CHO cells (1×10^8 cells) and centrifuged. Homogenate buffer (10 mL, 10 mM NaHCO3, 5 mM EDTA, pH 7.5, 0.5 mM PMSF (phenylmethylsulfonyl fluoride), 20 mg/L leupeptin, 4 mg/L E-64, 1 mg/L pepstatin A) was added to the pellets of the cells and, using Polytron Homogenizer, the mixture was homogenated. The supernatant obtained after centrifugation at 400×g for 10 min was further centrifuged at 100,000×g for 1 hr to give precipitate of the membrane fraction. The precipitate were suspended in 2 mL of assay buffer [20 mM Tris-HCl (pH 7.5), 5 mM EDTA, 0.5 mM PMSF, 20 mg/L leupeptin, 4 mg/L E-64, 1 mg/L pepstatin A]. The membrane fractions were suspended in assay buffer to a protein concentration of 2 mg/mL, and after dispensing, preserved at −80° C. and used upon thawing each time when in use.
The MCHR1 ligand binding inhibitory activity of the test compound was determined as follows.
An MCHR1-expressing CHO cell membrane fraction (173 μL) diluted with an assay buffer was dispensed to a 96 well polypropylene plate (3363, Corning). DMSO solution (2 μL), 33 μM cold MCH(1-19) diluted with DMSO solution (2 μL), or a test compound solution diluted with DMSO solution to various concentrations (2 μL) was added, and lastly, [^125I]-MCH (4-19) diluted with assay buffer (hereinafter, sometimes to be referred to as “hot MCH”, 25 μL) was added to each well. The mixture was reacted with stirring at room temperature for 1 hr, and the plate was set on FilterMate Harvester (PerkinElmer). Using a treating glass filter plate (GF/C, PerkinElmer) with polyethyleneimine, which had been previously set, the plate was suction-filtered and washed three times with washing buffer (50 mM Tris-HCl buffer pH 7.5). The glass filter plate was dried, MicroScinti0 (PerkinElmer) was added at 25 μL/well, and the resulting radioactivity was measured by TopCount liquid scintillation counter (PerkinElmer). The binding inhibition rate of the test compound was calculated by the following formula. Binding inhibition (%)=100−(radioactivity upon addition of test compound and hot MCH−radioactivity upon addition of cold MCH and hot MCH solution)/(radioactivity upon addition of DMSO solution and hot MCH−radioactivity upon addition of cold MCH and hot MCH solution)×100
The binding inhibition rates (%) of test compounds (0.1 μM) as measured using human MCHR1-expressing CHO cell are shown in Table 2.

T1 sequence (Q99705 whole entry): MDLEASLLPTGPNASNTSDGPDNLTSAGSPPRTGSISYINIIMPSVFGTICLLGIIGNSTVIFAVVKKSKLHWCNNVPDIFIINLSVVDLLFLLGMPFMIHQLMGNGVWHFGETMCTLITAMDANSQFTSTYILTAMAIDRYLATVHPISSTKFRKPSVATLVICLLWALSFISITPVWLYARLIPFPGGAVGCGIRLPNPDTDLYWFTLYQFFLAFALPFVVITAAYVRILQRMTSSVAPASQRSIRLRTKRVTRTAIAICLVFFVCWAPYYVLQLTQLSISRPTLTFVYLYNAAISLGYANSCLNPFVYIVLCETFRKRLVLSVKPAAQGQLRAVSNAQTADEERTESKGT

Point of comparison: `Cn1c(C2CC2C(C)(C)O)nc2ccc(-n3ccc(OCc4ccc(Cl)cc4)cc3=O)cc21` (stereo not drawn) [Example 154, 4-((4-Chlorobenzyl)oxy)-1-(2-((1R*,2S*)-2-(2-hydroxypropan-2-yl)cyclopropyl)-1-methyl-1H-benzimidazol-6-yl)pyridin-2(1H)-one], “Binding inhibition rate % (0.1 μM)” value 91%. Against it:
- Cn1c(C2CC2C(C)(C)F)nc2ccc(-n3ccc(OCc4ccc(Cl)cc4)cc3=O)cc21 (stereo not drawn) [Example 209, 4-((4-Chlorobenzyl)oxy)-1-(2-((1R*,2S*)-2-(2-fluoropropan-2-yl)cyclopropyl)-1-methyl-1H-benzimidazol-6-yl)pyridin-2(1H)-one] — lower, 89%

Same assay, conditions: test compound 0.1 μM, human MCHR1-expressing CHO cell membrane fraction, read-out: Binding inhibition rate % (0.1 μM)

Point of comparison: `CCc1nc2ccc(-n3ccc(OCc4ccccc4)cc3=O)cc2n1C` [Example 210, 4-(Benzyloxy)-1-(2-ethyl-1-methyl-1H-benzimidazol-6-yl)pyridin-2(1H)-one], inhibition at 0.1 µM 51%. Against it:
- Cn1c(C2CC2)nc2ccc(-n3ccc(OCc4cc(F)cc(F)c4)cc3=O)cc21 [Example 119, 1-(2-Cyclopropyl-1-methyl-1H-benzimidazol-6-yl)-4-((3,5-difluorobenzyl)oxy)pyridin-2(1H)-one] — higher, 56%
- CCCc1nc2ccc(-n3ccc(OCc4ccccc4)cc3=O)cc2n1C [Example 126, 4-(Benzyloxy)-1-(1-methyl-2-propyl-1H-benzimidazol-6-yl)pyridin-2(1H)-one] — higher, 65%
- Cc1c(C2CC2)nc2ccc(-n3ccc(OCc4ccc(Cl)s4)cc3=O)cn12 [Example 139, 4-((5-Chloro-2-thienyl)methoxy)-1-(2-cyclopropyl-3-methylimidazo[1,2-a]pyridin-6-yl)pyridin-2(1H)-one] — higher, 88%
- Cc1ccc(COc2ccn(-c3ccc4nc(C5CC5)n(C)c4c3)c(=O)c2)cc1 [Example 142, 1-(2-Cyclopropyl-1-methyl-1H-benzimidazol-6-yl)-4-((4-methylbenzyl)oxy)pyridin-2(1H)-one] — higher, 69%
- Cc1ocnc1-c1nc2ccc(-n3ccc(OCc4ccc(F)cc4)cc3=O)cc2n1C [Example 145, 4-((4-Fluorobenzyl)oxy)-1-(1-methyl-2-(5-methyl-1,3-oxazol-4-yl)-1H-benzimidazol-6-yl)pyridin-2(1H)-one] — higher, 52%
- Cc1c(C2CC2)nc2ccc(-n3ccc(OCc4ccc(F)c(F)c4)cc3=O)cn12 [Example 146, 1-(2-Cyclopropyl-3-methylimidazo[1,2-a]pyridin-6-yl)-4-((3,4-difluorobenzyl)oxy)pyridin-2(1H)-one] — higher, 77%
- Cc1c(C2CC2)nc2ccc(-n3ccc(OCc4ccc(Cl)c(F)c4)cc3=O)cn12 [Example 151, 4-((4-Chloro-3-fluorobenzyl)oxy)-1-(2-cyclopropyl-3-methylimidazo[1,2-a]pyridin-6-yl)pyridin-2(1H)-one] — higher, 73%
- Cn1c(C2CC2C(C)(C)O)nc2ccc(-n3ccc(OCc4ccc(Cl)cc4)cc3=O)cc21 (stereo not drawn) [Example 153, 4-((4-Chlorobenzyl)oxy)-1-(2-((1R*,2S*)-2-(2-hydroxypropan-2-yl)cyclopropyl)-1-methyl-1H-benzimidazol-6-yl)pyridin-2(1H)-one] — higher, 94%
- Cc1nc2ccc(-n3ccc(OCc4ccc(F)cc4)cc3=O)cn2c1C [Example 162, 1-(2,3-Dimethylimidazo[1,2-a]pyridin-6-yl)-4-((4-fluorobenzyl)oxy)pyridin-2(1H)-one] — higher, 57%
- Cc1nc2ccc(-n3ccc(OCc4ccccc4)cc3=O)cn2c1C [Example 163, 4-(Benzyloxy)-1-(2,3-dimethylimidazo[1,2-a]pyridin-6-yl)pyridin-2(1H)-one] — lower, 49%
- Cc1nc2ccc(-n3ccc(OCc4csc(Cl)c4)cc3=O)cn2c1C [Example 165, 4-((5-Chlorothiophen-3-yl)methoxy)-1-(2,3-dimethylimidazo[1,2-a]pyridin-6-yl)pyridin-2(1H)-one] — higher, 81%
- Cc1nc2ccc(-n3ccc(OCc4ccc(Cl)s4)cc3=O)cn2c1C [Example 166, 4-((5-Chlorothiophen-2-yl)methoxy)-1-(2,3-dimethylimidazo[1,2-a]pyridin-6-yl)pyridin-2(1H)-one] — higher, 64%
- CCc1nc2ccc(-n3ccc(OCc4csc(Cl)c4)cc3=O)cn2c1C [Example 172, 4-((5-Chlorothiophen-3-yl)methoxy)-1-(2-ethyl-3-methylimidazo[1,2-a]pyridin-6-yl)pyridin-2(1H)-one] — higher, 72%
- Cc1c(C2CC2C#N)nc2ccc(-n3ccc(OCc4ccc(Cl)cc4)cc3=O)cn12 (centres unmarked) [Example 174, 2-(6-(4-((4-Chlorobenzyl)oxy)-2-oxopyridin-1(2H)-yl)-3-methylimidazo[1,2-a]pyridin-2-yl)cyclopropanecarbonitrile] — lower, 45%
- Cc1c(C2CC2)nc2ccc(-n3ccc(OCc4csc(C(F)F)c4)cc3=O)cn12 [Example 184, 1-(2-Cyclopropyl-3-methylimidazo[1,2-a]pyridin-6-yl)-4-((5-(difluoromethyl)-3-thienyl)methoxy)pyridin-2 (1H)-one] — higher, 82%
- CCc1ncoc1-c1nc2ccc(-n3ccc(OCc4ccc(F)cc4)cc3=O)cc2n1C [Example 201, 1-(2-(4-Ethyl-1,3-oxazol-5-yl)-1-methyl-1H-benzimidazol-6-yl)-4-((4-fluorobenzyl)oxy)pyridin-2(1H)-one] — higher, 84%
- Cn1c(C2CC2C(C)(C)F)nc2ccc(-n3ccc(OCc4ccc(Cl)cc4)cc3=O)cc21 (stereo not drawn) [Example 207, 4-((4-Chlorobenzyl)oxy)-1-(2-((1R*,2S*)-2-(2-fluoropropan-2-yl)cyclopropyl)-1-methyl-1H-benzimidazol-6-yl)pyridin-2(1H)-one] — higher, 85%
- CCC(=O)c1nc2ccc(-n3ccc(OCc4ccc(Cl)cc4)cc3=O)cc2n1C [Example 208, 4-((4-Chlorobenzyl)oxy)-1-(1-methyl-2-propanoyl-1H-benzimidazol-6-yl)pyridin-2(1H)-one] — lower, 39%
- CCc1nc2ccc(-n3ccc(OCc4ccc(Cl)s4)cc3=O)cc2n1C [Example 211, 4-((5-Chlorothiophen-2-yl)methoxy)-1-(2-ethyl-1-methyl-1H-benzimidazol-6-yl)pyridin-2(1H)-one] — higher, 76%
- Cc1cc(COc2ccn(-c3ccc4nc(C5CC5)n(C)c4c3)c(=O)c2)cs1 [Example 213, 1-(2-Cyclopropyl-1-methyl-1H-benzimidazol-6-yl)-4-((5-methyl-3-thienyl)methoxy)pyridin-2(1H)-one] — higher, 79%
- Cn1c(C2CC2)nc2ccc(-n3ccc(OCc4csc(F)c4)cc3=O)cc21 [Example 216, 1-(2-Cyclopropyl-1-methyl-1H-benzimidazol-6-yl)-4-((5-fluoro-3-thienyl)methoxy)pyridin-2(1H)-one] — higher, 88%
- Cn1c(C2CC2)nc2ccc(-n3ccc(OCc4ccsc4F)cc3=O)cc21 [Example 217, 1-(2-Cyclopropyl-1-methyl-1H-benzimidazol-6-yl)-4-((2-fluoro-3-thienyl)methoxy)pyridin-2(1H)-one] — higher, 73%
- Cn1c(C2CC2)nc2ccc(-n3ccc(OCc4ccsc4Cl)cc3=O)cc21 [Example 221, 4-((2-Chloro-3-thienyl)methoxy)-1-(2-cyclopropyl-1-methyl-1H-benzimidazol-6-yl)pyridin-2(1H)-one] — higher, 58%
- CCc1nc2ccc(-n3ccc(OCc4ccc(Cl)c(F)c4)cc3=O)cc2n1C [Example 229, 4-((4-Chloro-3-fluorobenzyl)oxy)-1-(2-ethyl-1-methyl-1H-benzimidazol-6-yl)pyridin-2(1H)-one] — lower, 45%
- Cn1c(C2CC2)nc2ccc(-n3ccc(OCc4cc(Br)c(Cl)s4)cc3=O)cc21 [Example 232, 4-((4-Bromo-5-chloro-2-thienyl)methoxy)-1-(2-cyclopropyl-1-methyl-1H-benzimidazol-6-yl)pyridin-2(1H)-one] — higher, 73%
- CCc1nc2ccc(-n3ccc(OCc4ccc(C(F)(F)F)s4)cc3=O)cc2n1C [Example 233, 1-(2-Ethyl-1-methyl-1H-benzimidazol-6-yl)-4-((5-(trifluoromethyl)-2-thienyl)methoxy)pyridin-2(1H)-one] — higher, 67%
